Experimental data from patent publication US9511050B2, “Methods and compositions for treating cancer” (GEORGETOWN UNIVERSITY, priority 2013, dated 2016).
Read-outs that look alike come from different tables or passages of the source.

Key:
Format in all cases: cell-based
[1] = tested on: TC71 (human ESFT cell line); assay: IC50 activity in TC71 cells
Protocol: (§1) Compounds provided in Table 2 were prepared using methods similar to those described herein. The structures and IC50 activities of particular compounds in PANC1 (a human pancreatic carcinoma), TC32 (human ESFT cell line), and TC71 (human ESFT cell line) cells are summarized in Table 2.
Growth inhibition of ESFT cells was measured for various concentrations of particular compounds.

[2] = tested on: TC32 (human ESFT cell line); assay: IC50 activity in TC32 cells
Protocol: as §1

[3] = tested on: PANC1 (a human pancreatic carcinoma); assay: IC50 activity in PANC1 cells
Protocol: as §1

[4] = Homo sapiens, TC-71, TC71 cells
[5] = Homo sapiens, TC-32, TC32 cells
[6] = Homo sapiens, PANC-1, PANC1 cells
[7] = PANC1 cells, read-out: IC50 PANC 1

Row | IC50 [1, 4] | IC50 [2, 5] | IC50 [3, 6] | IC50 ([1]; TC71 cells) | IC50 ([2]; TC32 cells) | IC50 [3, 7] | SMILES | potency compared with YK-4-279 ([1]; TC71 cells)
1 | 4.08 µM | ≥ 40 µM | 2.2 µM | – | – | – | CN(C)c1ccc(C(=O)/C=C2/C(=O)Nc3c(Cl)ccc(Cl)c32)cc1 [PT-1-53] | –
2 | ≥ 40 µM | ≥ 40 µM | ≥ 40 µM | – | – | – | COc1ccc(C(=O)CC2(OC)C(=O)Nc3c(Cl)ccc(Cl)c32)cc1 (centres unmarked) [PT-2-78] | –
3 | 6.94 µM | 2.95 µM | 10.9 µM | – | – | – | O=C(CC1(O)C(=O)Nc2c(Cl)ccc(Cl)c21)c1ccc(C(F)(F)F)cc1 (centres unmarked) [PT-1-15] | –
4 | 9.15 µM | 4.63 µM | ≥ 40 µM | – | – | – | O=C(CC1(O)C(=O)Nc2c(Cl)ccc(Cl)c21)c1ccc([N+](=O)[O-])cc1 (centres unmarked) [YK-4-286] | –
5 | 5.66 µM | 1.41 µM | 11 µM | – | – | – | CCOc1ccc(C(=O)/C=C2\C(=O)Nc3c(Cl)ccc(Cl)c32)cc1 [PT-1-43] | –
6 | 4.42 µM | 2.7 µM | ≥ 40 µM | – | – | – | COc1ccc(C(=O)CC2(O)C(=O)Nc3c(Cl)ccc(Cl)c32)c(OC)c1OC (centres unmarked) [PT-1-23] | –
7 | ≥ 40 µM | ≥ 40 µM | ≥ 40 µM | – | – | – | O=C(CC1(O)C(=O)Nc2c(Cl)ccc(Cl)c21)c1ccccc1 (centres unmarked) [YK-4-285] | –
8 | ≥ 40 µM | 8.99 µM | ≥ 40 µM | – | – | – | COc1cc(OC)cc(C(=O)CC2(O)C(=O)Nc3c(Cl)ccc(Cl)c32)c1 (centres unmarked) [PT-1-22] | –
9 | ≥ 40 µM | ≥ 40 µM | ≥ 40 µM | – | – | – | O=C(CC1(O)C(=O)Nc2c(Cl)ccc(Cl)c21)c1ccc(OC(F)(F)F)cc1 (centres unmarked) [PT-1-16] | –
10 | 2.82 µM | 2.61 µM | 22.9 µM | – | – | – | COc1ccc(C(=O)CC2(O)C(=O)Nc3c(Cl)ccc(Cl)c32)c(OC)c1 (centres unmarked) [PT-1-19] | –
11 | ≥ 40 µM | ≥ 40 µM | ≥ 40 µM | – | – | – | COc1cc(C(=O)CC2(O)C(=O)Nc3c(Cl)ccc(Cl)c32)cc(OC)c1OC (centres unmarked) [PT-1-13] | –
12 | 3.57 µM | 2.7 µM | 11.1 µM | – | – | – | CCOc1ccc(C(=O)CC2(O)C(=O)Nc3c(Cl)ccc(Cl)c32)cc1 (centres unmarked) [PT-1-14] | –
13 | 17 µM | 12.1 µM | 11.2 µM | – | – | – | COc1ccc(C(=O)CC2(OC)C(=O)N(C)c3c(Cl)ccc(Cl)c32)cc1 (centres unmarked) [PT-2-79] | –
14 | ≥ 40 µM | ≥ 40 µM | ≥ 40 µM | – | – | – | O=C(CC1(O)C(=O)Nc2c(Cl)ccc(Cl)c21)c1ccc(I)cc1 (centres unmarked) [YK-4-277] | –
15 | 1.81 µM | 1.05 µM | 5.41 µM | 2.32 µM | 1.66 µM | 6.76 µM | COc1ccc(C(=O)/C=C2\C(=O)Nc3c(Cl)ccc(Cl)c32)c(OC)c1 [PT-1-39] | –
16 | ≥ 40 µM | ≥ 40 µM | ≥ 40 µM | – | – | – | COc1ccc(C(=O)CC2(O)C(=O)N(C)c3ccccc32)cc1 (centres unmarked) [PT-2-64] | –
17 | 15.8 µM | 6.32 µM | 12.6 µM | – | – | – | O=C(CC1(O)C(=O)Nc2c(Cl)ccc(Cl)c21)c1ccc(Cl)c(Cl)c1 (centres unmarked) [YK-4-287] | –
18 | ≥ 40 µM | ≥ 40 µM | ≥ 40 µM | – | – | – | COc1ccc(C(=O)CC2(O)C(=O)Nc3c(Cl)cccc32)cc1 (centres unmarked) [PT-2-52] | –
19 | 0.909 µM | 0.982 µM | 28.1 µM | 1.41 µM | 1.2 µM | – | CSc1ccc(C(=O)CC2(O)C(=O)Nc3c(Cl)ccc(Cl)c32)cc1 (centres unmarked) [PT-1-67] | –
20 | 1.36 µM | 1.5 µM | – | 2.2 µM | 2.57 µM | – | COc1ccc(C(=O)/C=C2/C(=O)Nc3c(Cl)ccc(Cl)c32)cc1 [PT-1-54] | –
21 | ≥ 40 µM | 12.4 µM | ≥ 40 µM | – | – | – | COc1ccc(C(=O)CC2(O)C(=O)Nc3ccc(Cl)cc32)cc1 (centres unmarked) [PT-2-56] | –
22 | ≥ 40 µM | ≥ 40 µM | ≥ 40 µM | – | – | – | O=C(CC1(O)C(=O)Nc2c(Cl)ccc(Cl)c21)c1ccc(F)cc1 (centres unmarked) [YK-4-278] | –
23 | 1.64 µM | 1.03 µM | ≥ 40 µM | – | – | – | COc1ccc(C(=O)/C=C2\C(=O)Nc3c(Cl)ccc(Cl)c32)cc1 [PT-1-33] | –
24 | ≥ 40 µM | ≥ 40 µM | ≥ 40 µM | – | – | – | COc1ccc(C(=O)CC2(O)C(=O)Nc3cc(Br)cc(Br)c32)cc1 (centres unmarked) [PT-1-271] | –
25 | ≥ 40 µM | ≥ 40 µM | ≥ 40 µM | – | – | – | Nc1ccc(C(=O)CC2(O)C(=O)Nc3c(Cl)ccc(Cl)c32)cc1 (centres unmarked) [YK-4-284] | –

Row | IC50 [1, 4] | IC50 [2, 5] | IC50 [3, 6] | IC50 ([1]; TC71 cells) | IC50 ([2]; TC32 cells) | IC50 [3, 7] | SMILES | potency compared with YK-4-279 ([1]; TC71 cells)
26 | ≥ 40 µM | ≥ 40 µM | ≥ 40 µM | – | – | – | COc1ccc(C(=O)CC2(O)C(=O)Nc3cc(Cl)c(Cl)cc32)cc1 (centres unmarked) [PT-2-39] | –
27 | 2.14 µM | 1.19 µM | 2.85 µM | 1.6 µM | 1.61 µM | 5.16 µM | COc1ccc(C(=O)/C=C2\C(=O)Nc3c(Cl)ccc(Cl)c32)c(OC)c1OC [PT-1-41] | –
28 | 23.9 µM | ≥ 40 µM | 11 µM | – | – | – | O=C(CC1(O)C(=O)Nc2c(Cl)ccc(Cl)c21)c1ccc(Cl)cc1 (centres unmarked) [YK-4-275] | –
29 | ≥ 40 µM | ≥ 40 µM | ≥ 40 µM | – | – | – | CCCC(=O)CC1(O)C(=O)N(C)c2c(Cl)ccc(Cl)c21 (centres unmarked) [PT-2-71] | –
30 | ≥ 40 µM | ≥ 40 µM | ≥ 40 µM | – | – | – | O=C(CC1(O)C(=O)Nc2c(Cl)ccc(Cl)c21)c1ccccc1Cl (centres unmarked) [YK-4-282] | –
31 | 9.35 µM | 3 µM | ≥ 40 µM | – | – | – | O=C(CC1(O)C(=O)Nc2c(Cl)ccc(Cl)c21)c1ccc(Cl)c(Cl)c1Cl (centres unmarked) [YK-4-288] | –
32 | – | 0.291 µM | – | – | 0.383 µM | – | CN(C)c1ccc(C(=O)/C=C2\C(=O)Nc3c(Cl)ccc(Cl)c32)cc1 [PT-1-38] | –
33 | 29.6 µM | 7.22 µM | ≥ 40 µM | – | – | – | O=C(CC1(O)C(=O)Nc2c(Cl)ccc(Cl)c21)c1cccc(Cl)c1 (centres unmarked) [YK-4-281] | –
34 | ≥ 40 µM | ≥ 40 µM | ≥ 40 µM | – | – | – | CC(C)Oc1ccc(C(=O)CC2(O)C(=O)Nc3c(Cl)ccc(Cl)c32)cc1 (centres unmarked) [PT-1-69] | –
35 | ≥ 40 µM | ≥ 40 µM | ≥ 40 µM | – | – | – | C/C=C1\NC(=O)C(O)(CC(=O)c2ccc(OC)cc2)\C1=C/C (centres unmarked) [PT-2-37] | –
36 | ≥ 40 µM | ≥ 40 µM | ≥ 40 µM | – | – | – | COc1cccc(C(=O)CC2(O)C(=O)Nc3c(Cl)ccc(Cl)c32)c1OC (centres unmarked) [PT-1-20] | –
37 | ≥ 40 µM | ≥ 40 µM | ≥ 40 µM | – | – | – | O=C(CC1(O)C(=O)N(Cc2ccccc2)c2c(Cl)ccc(Cl)c21)c1ccc(Cl)cc1 (centres unmarked) [YK-4-276] | –
38 | 0.401 µM | 0.259 µM | ≥ 40 µM | 0.294 µM | 0.284 µM | – | CN(C)c1ccc(C(=O)CC2(O)C(=O)Nc3c(Cl)ccc(Cl)c32)cc1 (centres unmarked) [PT-1-17] | appeared to be more potent
39 | ≥ 40 µM | ≥ 40 µM | ≥ 40 µM | – | – | – | COc1ccccc1C(=O)CC1(O)C(=O)Nc2c(Cl)ccc(Cl)c21 (centres unmarked) [PT-1-12] | –
40 | – | 2.18 µM | ≥ 40 µM | – | 2.31 µM | – | COc1ccc(C(=O)CC2(O)C(=O)N(C)c3c(Cl)ccc(Cl)c32)cc1 (centres unmarked) [PT-2-69] | –
41 | ≥ 40 µM | ≥ 40 µM | ≥ 40 µM | – | – | – | COc1cccc(C(=O)CC2(O)C(=O)Nc3c(Cl)ccc(Cl)c32)c1 (centres unmarked) [PT-1-18] | –
42 | ≥ 40 µM | ≥ 40 µM | ≥ 40 µM | – | – | – | O=C(CC1(O)C(=O)Nc2c(Cl)ccc(Cl)c21)c1ccc(Oc2ccccc2)cc1 (centres unmarked) [PT-1-60] | –
43 | ≥ 40 µM | ≥ 40 µM | ≥ 40 µM | – | – | – | O=C(CC1(O)C(=O)Nc2c(Cl)ccc(Cl)c21)c1ccc(O)cc1 (centres unmarked) [YK-4-289] | –
44 | ≥ 40 µM | ≥ 40 µM | ≥ 40 µM | – | – | – | COc1ccc(C(=O)CC2(O)C(=O)Nc3c(Cl)ccc(Cl)c32)cc1OC (centres unmarked) [PT-1-21] | –
45 | ≥ 40 µM | ≥ 40 µM | ≥ 40 µM | – | – | – | COc1ccc(C(=O)CC2(O)C(=O)Nc3ccccc32)cc1 (centres unmarked) [PT-1-267] | –
46 | ≥ 40 µM | ≥ 40 µM | ≥ 40 µM | – | – | – | COc1ccc(CC(=O)CC2(O)C(=O)Nc3c(Cl)ccc(Cl)c32)cc1 (centres unmarked) [PT-2-59] | –
47 | 26 µM | 8.91 µM | 12.7 µM | – | – | – | O=C(CC1(O)C(=O)Nc2c(Cl)ccc(Cl)c21)c1ccc(Br)cc1 (centres unmarked) [YK-4-283] | –
48 | 12.3 µM | 10.3 µM | ≥ 40 µM | – | – | – | N#Cc1ccc(C(=O)CC2(O)C(=O)Nc3c(Cl)ccc(Cl)c32)cc1 (centres unmarked) [PT-1-11] | –
49 | ≥ 40 µM | ≥ 40 µM | ≥ 40 µM | – | – | – | COc1ccc(C(=O)CC2(O)C(=O)Nc3cccc(Cl)c32)cc1 (centres unmarked) [PT-1-275] | –
50 | 30.1 µM | 12.1 µM | ≥ 40 µM | – | – | – | Cc1ccc(C(=O)CC2(O)C(=O)Nc3c(Cl)ccc(Cl)c32)cc1 (centres unmarked) [YK-4-280] | –
